# From paper PMC2742562 (ACS chemical biology, 2009)
# Target: glucose/galactose binding protein (GGBP) (Escherichia coli, UniProt P0AEE5)
# Assay: […] galactose competition binding assay
# glucose/galactose binding protein (GGBP), sequence (P0AEE5 24-332 limits assumed): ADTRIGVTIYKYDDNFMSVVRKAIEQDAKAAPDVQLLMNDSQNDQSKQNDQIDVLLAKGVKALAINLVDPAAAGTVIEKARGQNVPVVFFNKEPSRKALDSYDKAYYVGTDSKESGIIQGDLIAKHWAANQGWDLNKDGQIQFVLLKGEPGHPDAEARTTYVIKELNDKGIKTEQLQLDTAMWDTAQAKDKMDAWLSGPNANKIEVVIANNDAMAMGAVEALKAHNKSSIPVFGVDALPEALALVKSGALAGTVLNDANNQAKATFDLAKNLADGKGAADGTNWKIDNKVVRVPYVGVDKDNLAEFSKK
structure (smiles),measurement,value
"OC[C@H]1O[C@@H](OCCO[C@H]2[C@H](O)[C@@H](CO)OC(O)[C@@H]2O)[C@H](O)[C@@H](O)[C@@H]1O (stereo partly drawn) [DWI, 3-O-(2'-beta-D-glucopyanosyloxyethyl)-D-glucose]",Ki,27 ± 7 µM
